Data as given in patent US9326513B2, “Fungicidal compositions” (Syngenta Participations AG, priority 2011, dated 2016).

Experiments:
[1] = system: Blumeria graminis f. sp. tritici (Erysiphe graminis f. sp. tritici); assay: Blumeria graminis f. sp. tritici / wheat / leaf disc preventative (powdery mildew on wheat); format: in vivo; conditions: foliar, compared to untreated control leaf disks, read-out: disease control
Method in brief: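 Preventative leaf-disc test: compound (200 ppm) was sprayed onto cv. Kanzler wheat segments, which were dusted with conidia from infected plants 1 day after application. After incubation at 20° C and 60% rh, disease control relative to untreated segments was rated 6-8 days after application.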

[2] = system: Puccinia recondita f. sp. tritici; assay: Puccinia recondita f. sp. tritici / wheat / leaf disc preventative (brown rust); format: in vivo; conditions: foliar, compared to untreated control leaf disks, read-out: disease control
Description: Puccinia recondita f. sp. tritici/Wheat/Leaf Disc Preventative (Brown Rust) Wheat leaf segments cv. Kanzler were placed on agar in multiwell plates (24-well format) and sprayed with the formulated test compound diluted in water. The leaf disks were inoculated with a spore suspension of the fungus 1 day after application.

[3] = system: Puccinia recondita f. sp. tritici; assay: Puccinia recondita f. sp. tritici / wheat / leaf disc curative (brown rust); format: in vivo; conditions: foliar, compared to untreated control leaf disks, read-out: disease control
Experimental: Puccinia recondita f. sp. tritici/Wheat/Leaf Disc Curative (Brown Rust) Wheat leaf segments cv. Kanzler are placed on agar in multiwell plates (24-well format). The leaf segments are inoculated with a spore suspension of the fungus. Plates were stored in darkness at 19° C. and 75% rh. The formulated test compound diluted in water was applied 1 day after inoculation.

[4] = system: Pyrenophora teres; assay: Pyrenophora teres / barley / leaf disc preventative (net blotch); format: in vivo; conditions: foliar, compared to untreated control leaf disks, read-out: disease control
Description: Pyrenophora teres/Barley/Leaf Disc Preventative (Net Blotch) Barley leaf segments cv. Hasso were placed on agar in a multiwell plate (24-well format) and sprayed with the formulated test compound diluted in water. The leaf segments were inoculated with a spore suspension of the fungus 2 days after application.

[5] = system: Septoria tritici; assay: Septoria tritici (leaf blotch), YBG microtiter plate, photometric growth inhibition after 6 days; format: cell-based; conditions: Zymoseptoria tritici, 144 h, solo
Description: (§1) In the following Tables ‘Activity (%)’ means the assessed experimental activity (% disease control in this test when compared to untreated control leaf disks under the same conditions, which show extensive disease development) and “P” is the expected value calculated (expected) activity according to the COLBY formula (see above). The column headed ‘S?’ indicates whether or not synergy was observed, with ‘y’ meaning that synergy was observed.
Septoria tritici (Leaf Blotch):
After placing solutions of the test compounds (containing 0.2% DMSO) into a microtiter plate (96-well format), an equal amount of the nutrient broth (YBG) was added to each of the well. Finally the fungal spore solution was added. The test plates were incubated at 20° C. The inhibition of growth was determined photometrically after 6 days and the activity calculated in relation to untreated control.

[6] = system: Phakopsora pachyrhizi (triazole tolerant soybeanrust strain); assay: Phakopsora pachyrhizi on soybean, preventive treatment; format: in vivo; conditions: solo, soybean leaf discs, 1 day preventive, 11 days after application
[7] = system: Monographella nivalis (syn. Microdochium nivale, Fusarium nivale); assay: Monographella nivalis (snow mould, foot rot of cereals), PDB microtiter plate, visual after 72 hrs; format: cell-based; conditions: Monographella nivalis, applied alone
[8] = system: Botrytis cinerea; assay: Botrytis cinerea (gray mould), PDB microtiter plate, visual after 72 hrs; format: cell-based; conditions: Botrytis cinerea, alone
[9] = system: Gaeumannomvces graminis; assay: Gaeumannomvces graminis (take-all of cereals), PDB microtiter plate, visual after 48 hrs; format: cell-based; conditions: solo
Description: In the following Tables ‘Activity (%)’ means the assessed experimental activity (% disease control in this test when compared to untreated control leaf disks under the same conditions, which show extensive disease development) and “P” is the expected value calculated (expected) activity according to the COLBY formula (see above). The column headed ‘S?’ indicates whether or not synergy was observed, with ‘y’ meaning that synergy was observed. Gaeumannomvces graminis (Take-all of Cereals) Mycelial fragments of the fungus from cryogenic storage were directly mixed into nutrient broth (PDB potato dextrose broth). After placing a (DMSO) solution of the test compounds into a microtiter plate (96-well format) the nutrient broth containing the fungal spores was added.

[10] = system: Sclerotinia sclerotiorum; assay: Sclerotinia sclerotiorum on oilseed rape, preventive treatment; format: in vivo; conditions: solo, 1 day preventive, 11 days after application
Description: as §1
Sclerotinia sclerotiorum on Oilseed Rape, Preventive Treatment
The compound activity was tested under 1 day preventive conditions. Oilseed rape plants with 3 unfolded leafs were sprayed with a track sprayer and 200 I/ha spray volume with the test compounds, either solo or in tankmix as shown in the table below.
1 day after application the plants were infested with a solution of Sclerotinia sclerotiorum mycelium. The plants were placed under plastic hoods and high humidity conditions in a climate chamber at 14 h day/10 h night cycle and 15° C. Disease infestation was evaluated visually 11 days after application and average activity calculated in relation to disease severity on untreated check.

[11] = system: Pythium ultimum; assay: Pythium ultimum (damping off), PDB microtiter plate, visual after 48 hrs; format: cell-based; conditions: solo, rate 0.03125 ppm
[12] = system: Sphaerotheca fuliginea; assay: Sphaerotheca fuliginea (powdery mildew) on cucumber, preventive treatment; format: in vivo; conditions: solo, 2 days preventive, 10 days after application
Description: In the following Tables 'Activity (%)' means the assessed experimental activity (% disease control in this test when compared to untreated control leaf disks under the same conditions, which show extensive disease development) and “P” is the expected value calculated (expected) activity according to the COLBY formula (see above). The column headed 'S?' indicates whether or not synergy was observed, with 'y' meaning that synergy was observed. Sphaerotheca fuliqinea (Powdery Mildew) on Cucumber, Preventive Treatment […] Cucumber plants with unfolded cotyledons were sprayed with a roomsprayer and 40 ml/4 plants spray volume with the test compounds, either solo or in […] shown in the table below. 2 days after application the plants were infested with spores of Sphaerotheca fuliginea.

| melting point | Structure (SMILES) | pest or weed control at 200 ppm [1] | pest or weed control at 200 ppm [2] | pest or weed control at 200 ppm [3] | pest or weed control at 200 ppm [4] | also measured |
| --- | --- | --- | --- | --- | --- | --- |
| 61 to 62 °C | CCN(C)/C=N/c1cc(Br)c(OCc2c(F)cccc2F)nc1C [Q.326] | ≥ 50% | ≥ 50% | ≥ 50% | ≥ 50% |  |
|  | CC(C1CC1)C(O)(Cn1cncn1)c1ccc(Cl)cc1 (centres unmarked) [Cyproconazole] |  |  |  |  | inhibition of growth at 0.25 ppm ([5]; rate 0.25 ppm): 0%; inhibition of growth at 0.5 ppm ([5]; rate 0.5 ppm): 64%; inhibition of growth at 1 ppm ([5]; rate 1 ppm): 84%; inhibition of growth at 1.25 ppm ([5]; rate 1.25 ppm): 39%; inhibition of growth at 2.5 ppm ([5]; rate 2.5 ppm): 76%; Activity ([6]; rate 0.5 g ai/ha): 38%; Activity ([6]; rate 2 g ai/ha): 53% |
| 53 to 57 °C | CCN(C)/C=N/c1cc(Br)c(OCc2cc(C)ccc2C)nc1C [Q.154] | ≥ 50% | ≥ 50% | ≥ 50% | ≥ 50% |  |
| 52 to 54 °C | C#Cc1cccc(COc2nc(C)c(/N=C/N(C)CC)cc2Br)c1 [Q.195] | ≥ 50% | ≥ 50% | ≥ 50% | ≥ 50% |  |
|  | Cn1cc(C(=O)Nc2cccc3c2C2CCC3C2=C(Cl)Cl)c(C(F)F)n1 (centres unmarked) [(V), N-[9-(dichloromethylene)-1,2,3,4-tetrahydro-1,4-methanonaphthalen-5-yl]-3-(difluoromethyl)-1-methyl-1H-pyrazole-4-carboxamide, reference compound] |  |  |  |  | inhibition at 0.03125 ppm ([7]; 0.03125 ppm): 0%; inhibition at 0.0625 ppm ([7]; 0.0625 ppm): 50%; inhibition at 0.125 ppm ([7]; 0.125 ppm): 70%; inhibition at 0.03125 ppm ([7]; rate 0.03125 ppm): 0%; inhibition at 0.0625 ppm ([7]; rate 0.0625 ppm): 50%; inhibition at 0.015625 ppm ([8]; rate 0.015625 ppm): 20%; inhibition at 0.03125 ppm ([8]; rate 0.03125 ppm, read-out: Activity (%)): 50%; inhibition at 0.0625 ppm ([8]; rate 0.0625 ppm, read-out: Activity (%)): 70%; inhibition at 0.125 ppm ([8]; rate 0.125 ppm): 70%; inhibition at 0.015625 ppm ([9]; rate 0.015625 ppm): 0%; inhibition at 0.03125 ppm ([9]; rate 0.03125 ppm): 20%; inhibition at 0.0625 ppm ([9]; rate 0.0625 ppm): 70% |
|  | CCN(C)/C=N/c1cc(Br)c(OC2CC=CC2)nc1C [Q.063] | ≥ 50% | ≥ 50% | ≥ 50% | ≥ 50% | Activity ([6]; rate 0.5 g ai/ha): 0%; Activity ([6]; rate 2 g ai/ha): 0% |
| 57 to 61 °C | CCN(C)/C=N/c1cc(Br)c(OCc2ccccc2F)nc1C [Q.298] | ≥ 50% | ≥ 50% | ≥ 50% | ≥ 50% |  |
| 57 to 58 °C | CCN(C)/C=N/c1cc(Br)c(OCc2cc(C)cc(C)c2)nc1C [Q.207] | ≥ 50% | ≥ 50% | ≥ 50% | ≥ 50% |  |
| 57 to 59 °C | CCN(C)/C=N/c1cc(Br)c(OCc2ccnc(Cl)c2)nc1C [Q.111] | ≥ 50% | ≥ 50% | ≥ 50% | ≥ 50% |  |
| 60 to 62 °C | CCN(C)/C=N/c1cc(Br)c(OCc2cccc(C)c2)nc1C [Q.128] | ≥ 50% | ≥ 50% | ≥ 50% | ≥ 50% |  |
| 43 to 44 °C | CCN(C)/C=N/c1cc(Br)c(OCc2cccc(C(F)(F)F)c2)nc1C [Q.153] | ≥ 50% | ≥ 50% | ≥ 50% | ≥ 50% |  |
| 46 to 48 °C | CCN(C)/C=N/c1cc(Br)c(OCCc2ccc(F)cc2)nc1C [Q.129] | ≥ 50% | ≥ 50% | ≥ 50% | ≥ 50% |  |
| 67 to 68 °C | CCN(C)/C=N/c1cc(Br)c(OCc2cccc(F)c2C)nc1C [Q.322] | ≥ 50% | ≥ 50% | ≥ 50% | ≥ 50% |  |
| 55 to 57 °C | CCN(C)/C=N/c1cc(Br)c(OCc2cc(C)ns2)nc1C [Q.235] | ≥ 50% | ≥ 50% | ≥ 50% | ≥ 50% |  |
| 40 to 42 °C | CCN(C)/C=N/c1cc(Br)c(OCc2cccc(NC(=O)OC(C)(C)C)c2)nc1C [Q.236] |  | ≥ 50% | ≥ 50% | ≥ 50% |  |
|  | O=C(Nc1ccccc1-c1ccc(Cl)cc1)c1cccnc1Cl [Boscalid] |  |  |  |  | Activity ([10]; rate 50 g a.i./ha): 8%; Activity ([10]; rate 100 g a.i./ha): 25% |
|  | COCC(=O)N(c1c(C)cccc1C)[C@H](C)C(=O)OC [Mefenoxam] |  |  |  |  | Activity (%) [11]: 50% |
| 27 to 30 °C | CCN(C)/C=N/c1cc(Br)c(OCc2ccc(F)cc2C)nc1C [Q.320] | ≥ 50% | ≥ 50% | ≥ 50% | ≥ 50% |  |
| 53 to 56 °C | CCN(C)/C=N/c1cc(Br)c(OCc2ccccc2Cl)nc1C [Q.300] | ≥ 50% | ≥ 50% | ≥ 50% |  |  |
| 56 to 57 °C | CCN(C)/C=N/c1cc(Br)c(OCc2c(C)cccc2C)nc1C [Q.325] | ≥ 50% | ≥ 50% | ≥ 50% |  |  |
|  | CSC(=O)c1cccc2nnsc12 [Acibenzolar-s-methyl] |  |  |  |  | Activity ([12]; rate 0.6 ppm): 0%; Activity ([12]; rate 2 ppm): 0%; Activity ([12]; rate 6 ppm): 0%; Activity ([12]; rate 20 ppm): 4% |
